We go through eight compounds from ChEMBL document CHEMBL1133082, “Adenosine kinase inhibitors. 2. Synthesis, enzyme inhibition, and antiseizure activity of diaryltubercidin analogues” (J Med Chem, 2000).

What is called pIC50 is the negative decadic logarithm of the IC50, by convention in mol/L. As a reminder, the ED50 is the dose that gives a 50% effect, or the effect in half of the subjects. Low readings indicate greater potency, high ones weaker potency. Broadly, the inhibition in vivo is the relative decrease from the control value, in per cent.

The structures appear in SMILES notation. pIC50: −log10 of the molar value.

One assay concerns the target Adenosine kinase (Homo sapiens, UniProt P55263). Briefly: Inhibition of recombinant human adenosine kinase.
The test system of assay [1] is Rattus norvegicus. Kind of assay: Intraperitoneal effective dose required for inhibition of MES-induced seizures in rat. The assay is classed as functional. Conditions: ip.
In assay [2] the test system is Rattus norvegicus. Kind of assay: Tested for inhibition of MES-induced seizures in rat after ip administration of 5 mg/kg. The assay is classed as functional. The conditions noted are these: route intraperitoneal.

Chain of Adenosine kinase (P55263 whole entry): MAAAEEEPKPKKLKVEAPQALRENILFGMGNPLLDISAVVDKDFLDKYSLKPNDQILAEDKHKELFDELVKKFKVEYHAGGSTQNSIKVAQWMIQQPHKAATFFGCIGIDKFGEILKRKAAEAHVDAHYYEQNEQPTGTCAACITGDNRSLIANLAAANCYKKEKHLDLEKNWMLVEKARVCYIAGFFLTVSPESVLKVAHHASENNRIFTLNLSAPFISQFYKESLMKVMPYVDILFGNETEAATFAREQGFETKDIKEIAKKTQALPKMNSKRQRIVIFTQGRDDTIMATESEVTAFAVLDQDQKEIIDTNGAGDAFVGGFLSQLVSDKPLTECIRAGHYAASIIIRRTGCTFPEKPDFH

In the case of `C[C@H]1O[C@@H](n2cc(I)c3c(NCc4ccccc4)ncnc32)[C@H](O)[C@@H]1O`, on Adenosine kinase, the negative logarithm of the IC50 (pIC50) is 6.10.
Turning to `C[C@H]1O[C@@H](n2cc(-c3ccccc3)c3c(Nc4ccc(O)cc4)ncnc32)[C@H](O)[C@@H]1O`, the negative-log IC50 (pIC50) on Adenosine kinase was 9.00. In the assay with Rattus norvegicus [1], this compound displayed an ED50 of 5.8 mg/kg. In the assay with Rattus norvegicus [2], the inhibition in vivo at 5 mg/kg was 35%.
With `C[C@H]1O[C@@H](n2cc(-c3ccccc3)c3c(Nc4ccc(F)cc4)ncnc32)[C@H](O)[C@@H]1O`, 5 mg/kg produced 73% inhibition in vivo in the assay on Rattus norvegicus [2].
As for `OC[C@H]1O[C@@H](n2ccc3c(Nc4ccccc4)ncnc32)[C@H](O)[C@@H]1O`, at Adenosine kinase, the negative logarithm of the IC50 (pIC50) was 5.90.
Same read-out and setting: the result for `C[C@H]1O[C@@H](n2cc(-c3ccccc3)c3c(NCc4ccccc4)ncnc32)[C@H](O)[C@@H]1O` reads 7.52.
`C[C@H]1O[C@@H](n2cc(-c3ccccc3)c3c(Nc4ccc(C#N)cc4)ncnc32)[C@H](O)[C@@H]1O`: the pIC50 at Adenosine kinase is 7.85. The same compound had an inhibition in vivo at 5 mg/kg with Rattus norvegicus [2] of 87%.
For `COc1ccc(Nc2ncnc3c2c(-c2ccccc2)cn3[C@@H]2O[C@H](C)[C@@H](O)[C@H]2O)cc1`, at Adenosine kinase, the pIC50 is 8.22. Also, the ED50 in the assay with Rattus norvegicus [1] was 1 mg/kg. The same compound registered an inhibition in vivo at 5 mg/kg in the assay on Rattus norvegicus [2] of 93%.
In the case of `OC[C@H]1O[C@@H](n2cc(-c3ccccc3)c3c(Nc4ccccc4)ncnc32)C[C@@H]1O`, the pIC50 on Adenosine kinase was 6.52.
